Data reported in patent US9914698B2, “Stearoyl amino acid salt and preparation method and application thereof” (Shanghai Jiaotong University School of Medicine, priority 2014, dated 2018).
Where two headings read alike, the source gives them in different places. Marks after values point to notes of the source that are not given here.

Columns and labels:
[1] = Equilibrium solubility, shake-flask method; assay type: physicochemical
Description: (§1) The shake-flask method was used to test the equilibrium solubility of NsTyr, NsTyr-2K, NsTyr-2Na in water at 37° C. […] The apparent lipid-water distribution coefficient log p of NsTyr-2K, NsTyr-2Na was respectively 1.512 and 1.477. Under different pHs, see Table 1 for the equilibrium solubility test data of NsTyr-2K, NsTyr-2Na; and see Table 2 for the apparent lipid-water distribution coefficient of NsTyr-2K and NsTyr-2Na.

[2] = Absorption kinetics after intragastric administration; assay type: in vivo; details: both sexes, Sprague-Dawley (SD), rat, blood; SD rats, oral 200 mg/kg
Description: Ten SD rats weighing 150-180 g were randomly divided into two groups, each comprising five, with males and females combined. After intragastric administration of 200 mg/kg of saline solution containing NsTyr and NsTyr-2K, the average blood concentration-time curve thereof was respectively shown in FIG. 2.

[3] = Apparent lipid-water distribution coefficient; assay type: physicochemical
Description: as §1

[4] = Stability assessment (influencing factors, acceleration and long-term tests, Chinese Pharmacopoeia 2010); assay type: physicochemical; details: high temperature, high humidity, strong light
Description: Considering that prototype drug stearoyl amino acid tend to absorb moisture, cake and become yellowish during long-term storage, the stearoyl amino acid is now converted into a form of active salt thereof. And the stability of NsTyr-2K and NsTyr-2Na was tested as required for bulk pharmaceutical chemicals according to the People's Republic of China Pharmacopoeia 2010.

[5] = test system: APP/PS1/TAU transgenic mice; assay: Open-field test; assay type: in vivo
From the text: (§2) Materials for open-field test: a spontaneous activity watch box (80×80×30), on top of which is furnished with a fluorescent lamp as a lighting system, and on the center of whose roof is a CCD camera connected to the computer; and an ethological computer image analysis system (SHANGHAI MOBILEDATUM TECH INFORMATION CO. LTD).
(§3) Laboratory animals: C57BL/6I (from Jackson Lab) (APP/PS1/TAU transgenic mice) in C57BL/6J (TAU transgenic mice). All APP/PS1/TAU transgenic mice and TAU transgenic mice belong to the mouse disease model as for Alzheimer's disease.
(§4) [1] Priscila Cagni, Mrilia Barros. Cannabinoid type I receptor ligands WIN 55,212-2 and AM251 alter anxiety-like behaviors of marmoset monkeys in an open-field test. Behavioural Brain Research 2013; 240:91-94.
(§5) Principles: Open-field test is useful for evaluation of mouse anxiety and behavior probing the outside world. By nature mice are capable of both exploring the unknown territory and protecting themselves from damage due to external potential risks. Open-field test, therefore, can test such mouse capabilities by recording their duration of stay at the marginal area and the central area (where anxiety occurs) in an open field. Meanwhile, the test as such can also measure mouse movement capabilities such as speed.

TAU transgenic mice [6] = assay: Open-field test; assay type: in vivo; details: medium-dose (30 mg/kg) and high-dose (45 mg/kg)
From the text: as §2, §3, §4, §5

[7] = test system: APP/PS1/TAU transgenic mice; assay: High plus maze test; assay type: in vivo; details: different doses
From the text: (§6) Materials for high plus maze: consisting of two opening arms opposite to each other and two closing arms opposite to each other, a central platform connecting the aforesaid arms, and a short, 1-cm-high damper along the edges of the opening arms (to prevent animals from slipping off the maze in the process of exploring), with the floors of the four arms and the central platform being black; the floor of the maze adjusted to be 50 cm away from the laboratory ground; and an ethological computer image analysis system (SHANGHAI MOBILEDATUM TECH INFORMATION CO. LTD).
as §3
(§7) Principles: With a couple of opening arms and another couple of closing arms, the high plus maze is useful for assessment of animal anxiety by taking advantage of animal tendency to explore a new extraneous environment as well as their fear of high and open extending arms, which form a behavioral conflict. Rodents tend to move within closing arms due to their fondness of dark, but will, out of curiosity, go into opening arms and move around there. When stimulated by a novel environment, they will engender an impulse to explore and a fear at the same time.

TAU transgenic mice [8] = assay: High plus maze test; assay type: in vivo
From the text: as §6, §3, §7

[9] = test system: APP/PS1 TAU transgenic mouse; assay: Rota rod test; assay type: in vivo, mice; details: high-dose
From the text: Materials for rota rod test: rotary rod type fatigue tester YLS-4C (SHANGHAI MOBILEDATUM TECH INFORMATION CO. LTD).
as §3
Principles: Rota rod is useful for studying the effects of drugs upon movement coordination and fatigue resistance.

[10] = test system: APP/PS1/TAU transgenic mice; assay: Morris water maze test (place navigation and spatial probe); assay type: in vivo
From the text: (§8) Materials for water maze test: a constant-temperature swimming pool, a platform for mice, and an ethological computer image analysis system (SHANGHAI MOBILEDATUM TECH INFORMATION CO. LTD).
as §3
(§9) Principles: Morris water maze test programs comprise two parts: place navigation test and spatial probe test. The former lasted a few days; each day mice were respectively put into water from four entries several times, and the time they spent seeking the platform hidden underwater (escape latency) was recorded. When place navigation test ended, the platform was removed. The latter recorded the mouse swimming trajectory after the mice were put into water from any chosen entry, and assessed their previous memory of the platform.

TAU transgenic mice [11] = assay: as above; assay type: in vivo
From the text: as §8, §3, §9

obese mouse model [12] = assay: Administration test in obese mouse model (weight, food intake); assay type: in vivo, C57BL/6 mice
Description: 2. Method: 60 C57BL/6 mice (aged 3 weeks, male, with a weight of 8.3 g each) were adaptively fed with 12% kcal normal diet for one week, and randomly divided into 6 groups, each consisting of 10 mice. One group (ND) continued to be fed with normal diet, the rest five groups (HFD I˜V) were fed with 45% kcal high-fat diet.
In the whole test process the mice kept raised in the following environment: temperature: 23±3° C.; humidity: 50±5%; bright and dim alternating cycle: 12 h/12 h; freely available to diet and drinking water in the whole process.
2. Method: ND and HFD I were respectively taken as normal and high-fat diet blank control groups, and were treated with 0.5% sodium carboxymethyl cellulose solution (5 ml/kg/day); HFD II˜IV were taken as groups of recipients, and were treated with NST-2K (20, 60, 100 mg/kg/day); HFD V was taken as a positive control group, and treated with Orlistat (100 mg/kg/day). All the above drugs dissolved in aqueous solution of 0.5% sodium carboxymethyl cellulose and were administered. The administration remained four weeks. In each week average weight and food intake were kept in record until the phase of administration ended.

obese mouse model [13] = assay: Collection and observation of fat and liver tissues of obese mice; assay type: in vivo, C57BL/6 mice; details: 100 mg/kg/day
From the text: 2. Method: After administration test in Embodiment 8, the mice were denied food overnight. Their abdominal cavity was opened to observe abdominal fat content in each group of the mice. Epididymal fat, perirenal fat and liver were separated and weighed.

obese mouse model [14] = assay: H&E staining of fat and liver tissue of obese mice; assay type: in vivo, C57BL/6 mice
Description: 2. Method: Epididymal fat and liver were fixed in 10% neutral formaldehyde solution for 48 h. After paraffin embedding they were made into […] of slices, and stained with hematoxylin-eosin (H&E staining). Light microscope was used to observe the size of fat cells, the structure of liver cells and adipose accumulation.

[15] = test system: gerbil model with global ischemia reperfusion injury; assay: Neurobehavioral scores of acute cerebral ischemia reperfusion model; assay type: in vivo; details: positive control group, dose not given; ischemic model group 3.1+/−0.32
From the text: Taking N-stearoyl amino acid potassium NsTyr-2K as an example, a gerbil model with global ischemia reperfusion injury was used to assess the protective role of NsTyr-2K against neurobehavioral disorder caused by cerebral ischemia-reperfusion injury by examining the changing behavioral indexes such as spatial, learning and cognitive functions in the perspective of overall animals during passive dark avoidance test and Morris water maze test.

[16] = day 5, medium-dose and high-dose group, *P<0.05

Structure (SMILES): CCCCCCCCCCCCCCCCCC(=O)N[C@@H](Cc1ccc(O)cc1)C(=O)O [NsTyr, N-stearoyl tyrosine]
- solubility thermodynamic ([1]; thermodynamic from solid, water, 37° C., read-out: equilibrium solubility in water): < 1000 µg/mL
- AUC(0-inf) [2]: 140 ng·h/mL
- AUC(0-t) [2]: 130 ng·h/mL
- Cmax [2]: 110 ng/mL
- MRT last [2]: 1.38 h
- Tmax [2]: 0.75 h
- half-life [2]: 1.49 h

Structure (SMILES): CCCCCCCCCCCCCCCCCC(=O)N[C@@H](Cc1ccc(O)cc1)C(=O)[O-].CCCCCCCCCCCCCCCCCC(=O)N[C@@H](Cc1ccc(O)cc1)C(=O)[O-].[Na+].[Na+] [NsTyr-2Na]
- Equilibrium solubility in buffer solution ([1]; pH 2.0): 66.938 µg/mL
- Equilibrium solubility in buffer solution ([1]; pH 3.0): 66.334 µg/mL
- Equilibrium solubility in buffer solution ([1]; pH 4.0): 195.371 µg/mL
- Equilibrium solubility in buffer solution ([1]; pH 5.0): 232.102 µg/mL
- Equilibrium solubility in buffer solution ([1]; pH 6.0): 274.629 µg/mL
- Equilibrium solubility in buffer solution ([1]; pH 7.0): 318.016 µg/mL
- Equilibrium solubility in buffer solution ([1]; pH 7.4): 374.484 µg/mL
- Equilibrium solubility in buffer solution ([1]; pH 8.0): 463.902 µg/mL
- Equilibrium solubility in buffer solution ([1]; pH 9.0): 512.644 µg/mL
- Apparent lipid-water distribution coefficient LogP [3]: 1.477
- Apparent lipid-water distribution coefficient Ko/w ([3]; buffer pH 2.0): 49.913
- Apparent lipid-water distribution coefficient LogP ([3]; buffer pH 2.0): 1.698
- Apparent lipid-water distribution coefficient Ko/w ([3]; buffer pH 3.0): 28.980
- Apparent lipid-water distribution coefficient LogP ([3]; buffer pH 3.0): 1.462
- Apparent lipid-water distribution coefficient Ko/w ([3]; buffer pH 4.0): 15.224
- Apparent lipid-water distribution coefficient LogP ([3]; buffer pH 4.0): 1.183
- Apparent lipid-water distribution coefficient Ko/w ([3]; buffer pH 5.0): 18.710
- Apparent lipid-water distribution coefficient LogP ([3]; buffer pH 5.0): 1.272
- Apparent lipid-water distribution coefficient Ko/w ([3]; buffer pH 6.0): 19.963
- Apparent lipid-water distribution coefficient LogP ([3]; buffer pH 6.0): 1.300
- Apparent lipid-water distribution coefficient Ko/w ([3]; buffer pH 7.0): 31.436
- Apparent lipid-water distribution coefficient LogP ([3]; buffer pH 7.0): 1.497
- Apparent lipid-water distribution coefficient Ko/w ([3]; buffer pH 7.4): 29.286
- Apparent lipid-water distribution coefficient LogP ([3]; buffer pH 7.4): 1.467
- Apparent lipid-water distribution coefficient Ko/w ([3]; buffer pH 8.0): 28.704
- Apparent lipid-water distribution coefficient LogP ([3]; buffer pH 8.0): 1.458
- Apparent lipid-water distribution coefficient Ko/w ([3]; buffer pH 9.0): 21.872
- Apparent lipid-water distribution coefficient LogP ([3]; buffer pH 9.0): 1.340
- stability [4]: stable properties
- duration of stay at the central activity area ([5]; 15, 30, 45 mg/kg): could not be changed
- mouse journey ([5]; high-dose 45 mg/kg): could increase mouse journey
- duration of stay in the central area (TAU transgenic mice [6]): reduce their duration of stay in the central area
- movement ability (journey) (TAU transgenic mice [6]): could enhance transgenic mouse movement ability
- low anxiety state [7]: did not change
- low-anxiety state (TAU transgenic mice [8]; different doses): the low-anxiety state was changed
- low-anxiety state (TAU transgenic mice [8]; high-dose, compared with the animal model group): significant difference
- movement coordination [9]: could obviously improve the phenomenon
- latency in place navigation test ([10]; day 4, dosing group vs model group): no significant difference
- latency in place navigation test [10, 16]: significant difference
- swimming time percentage in the third quadrant (probe test) ([10]; day 5, platform removed, high-dose group): statistical significance
- spatial probing (swimming trajectory, FIG. 11) ([10]; spatial probe test): only the high-dose group could enhance their spatial probing
- latency in place navigation test (TAU transgenic mice [11]; day 4, high-dose group vs model group): significant difference
- latency in place navigation test (TAU transgenic mice [11]; [16]): significant difference
- swimming time percentage in the third quadrant (probe test) (TAU transgenic mice [11]; day 5, platform removed, medium-dose and high-dose group): statistical significance
- spatial probing (swimming trajectory, FIG. 11) (TAU transgenic mice [11]; spatial probe test): both the medium- and high-dose groups could improve their spatial probing

Structure (SMILES): CCCCCCCCCCC[C@@H](C[C@@H]1OC(=O)[C@H]1CCCCCC)OC(=O)[C@H](CC(C)C)NC=O [Orlistat, reference compound]
- obese mouse weight (obese mouse model [12]; 100 mg/kg/day, four weeks): can inhibit weight gain in obese mice
- appetite (average daily food intake) (obese mouse model [12]; 4-week administration, high-fat diet groups): neither NST-2K nor Orlistat suppressed appetite
- perirenal fat percentage quality (obese mouse model [13]; HFD I blank 1.63 ± 0.10): 1.32 ± 0.06 g/100 g weight
- Epididymal fat percentage quality (obese mouse model [13]; HFD I blank 2.99 ± 0.08): 2.66 ± 0.07 g/100 g weight
- Liver percentage quality (obese mouse model [13]; HFD I blank 3.51 ± 0.07): 3.48 ± 0.06***^ g/100 g weight
- size of epididymal fat cells (obese mouse model [14]; HFD III, HFD IV (NST-2K 60, 100 mg/kg/day) and HFD V (Orlistat 100 mg/kg/day) vs HFD I): evidently smaller fat cells than HFD I
- fat accumulation in liver tissues (obese mouse model [14]; as the administration dose increased, vs HFD I): the accumulation began to ease

Structure (SMILES): COCCOC(=O)C1=C(C)NC(C)=C(C(=O)OC(C)C)C1c1cccc([N+](=O)[O-])c1 (stereo not drawn) [nimotop, reference compound]
- neurobehavioral score [15]: 1.12+/−0.31
